For one data set, the target named is T1, LPLA2 (Mus musculus, UniProt Q8VEB4).
T1 construct: purchased Proteos Inc. (Kalamazoo, MI)
T1 sequence (Q8VEB4 34-412): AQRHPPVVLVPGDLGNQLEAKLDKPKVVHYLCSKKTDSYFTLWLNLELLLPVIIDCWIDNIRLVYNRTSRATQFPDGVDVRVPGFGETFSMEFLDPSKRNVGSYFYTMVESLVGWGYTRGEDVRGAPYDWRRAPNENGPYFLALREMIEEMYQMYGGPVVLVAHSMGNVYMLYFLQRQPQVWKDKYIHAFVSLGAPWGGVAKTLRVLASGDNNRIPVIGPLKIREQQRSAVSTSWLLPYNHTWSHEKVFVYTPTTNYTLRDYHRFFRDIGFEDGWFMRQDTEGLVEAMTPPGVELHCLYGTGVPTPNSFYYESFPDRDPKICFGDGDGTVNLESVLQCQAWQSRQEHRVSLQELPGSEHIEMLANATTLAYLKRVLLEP
Kind of data set: LPLA2 thermal stability measurement (SYPRO Orange Tm). The data set is classed as binding.

The next data set concerns MDCK cells. Kind of data set: Screening phospholipidosis assay (LipidTOX Red / NucBlue Live fluorescence ratio). The following applies: LipidTOX Red to NucBlue Live fluorescence ratio, 24 h, 15 μM.
Data set [1] concerns the target T2, recombinant mouse LPLA2 (PLA2G15) (Mus musculus, UniProt Q8VEB4).
T2 construct: purchased Proteos Inc. (Kalamazoo, MI)
T2 sequence (Q8VEB4 34-412): T1 sequence (Q8VEB4 34-412)
Kind of data set: Transacylase activity of LPLA2 (1-O-acyl-N-acetylsphingosine synthase, cell-free liposome assay). The data set is classed as biochemical.

For data set [2] the following is noted: cited from earlier work.
A further data set deals with phospholipidosis. The conditions noted are these: phospholipidosis reported in vitro; Refs of Table 1; cited from earlier work.
The mark [3] stands for this setting: 1-O-acyl N-acetylsphingosine synthase activity, pH 4.5, DOPC/sulfatide liposomes, read-out: LPLA2 IC50.
[4] abbreviates: ref Pubchem and chEMBL databases.
The mark [5] stands for this setting: LPLA2 dependent 1-O-acyl N-acetylsphingosine synthase activity, read-out: LPLA2 IC50.

Structures are written as SMILES. Values joined by “and” are separate entries in the source; they are usually repeats but may differ in a detail not shown here. Equal entries are not always repeated. Where two headings read alike, the source gives them in different places.

Turning to `Cl.NCCc1ccc(O)c(O)c1` [3-Hydroxytyramine hydrochloride], the “(ΔTm)c-(ΔTm)d, difference in melting temperature of LPLA2 alone or in the presence of drug” value (from here on “(ΔTm)c-(ΔTm)d, difference”) at LPLA2 worked out at 0.75 ± 0.0 °C. Also, the “Ratio (15 μM)” value in the data set with MDCK cells amounted to 0.91.

`NCCc1cc(O)c(O)cc1O` [6-Hydroxydopamine]: on LPLA2 (N=3 ± SD), the “(ΔTm)c-(ΔTm)d, difference” value was -0.14 ± 0.1 °C. For the same compound, in the data set with MDCK cells, the “Ratio (15 μM)” value came out at 0.93.

For `CN(CCCN1c2ccccc2CCc2ccccc21)CC(=O)c1ccc(Cl)cc1` [Lofepramine, 2-[(3-{2-azatricyclo[9.4.0.0ˆ{3,8}]pentadeca-1(15),3,5,7,11,13-hexaen-2-yl}propyl) (methyl)amino]-1-(4-chlorophenyl) ethan-1-one], in data set [1] (setting [3]), the IC50 is 13.2 µM. Further, the “(ΔTm)c-(ΔTm)d, difference” value at LPLA2 (N=3 ± SD) is 0 °C. In data set [2] (setting [4]), the “pKa (basic)” value is 6.53. Besides, the “In Vitro PLD” value with phospholipidosis is “Yes”.

With `OC[C@@H](O)[C@@H](O)[C@H](O)[C@H](O)CO` [Mannitol, (2R,3R,4R,5R)-hexane-1,2,3,4,5,6-hexol], in data set [1] (setting [3]), the half-maximal inhibitory concentration (IC50) stood at 160 µM. Moreover, the “(ΔTm)c-(ΔTm)d, difference” value at LPLA2 (N=3 ± SD) was 1.0 ± 0.0 °C. Besides, the “pKa (basic)” value in data set [2] (setting [4]) is 12.3. For the same compound, in the data set on phospholipidosis, the “In Vitro PLD” value is listed as “Yes”.

As to `CN1CCc2c(c3ccccc3n2Cc2ccccc2)C1` [Mebhydrolin], the IC50 in data set [1] (setting [5]) stood at 146 µM. Besides, the “pKa (basic)” value in data set [2] (ref Pubchem and chEMBL database) was 6.7. Also, the “Ratio (15 μM)” value in the data set on MDCK cells was 2.54.

On to `COc1ccnc(C[S+]([O-])c2nc3ccc(OC(F)F)cc3[nH]2)c1OC` (centres unmarked) [Pantoprazole, 6-(difluoromethoxy)-2-[(3,4-dimethoxypyridin-2-yl)methanesulfinyl] -1H-1,3-benzodiazole], for which the concentration for half-maximal inhibition (IC50) in data set [1] (setting [3]) was 6.23 µM. Moreover, the “(ΔTm)c-(ΔTm)d, difference” value at LPLA2 (N=3 ± SD) was found to be 0.25 ± 0.1 °C. Also, the “pKa (basic)” value in data set [2] (setting [4]) is listed as 3.55. The “In Vitro PLD” value in the data set on phospholipidosis is on record as “Yes”.

For the compound `O=C1NC(=O)C(c2ccccc2)(c2ccccc2)N1` [Phenytoin], in data set [1] (setting [5]), the half-inhibitory concentration (IC50) turned out to be 60 µM. Further, the “(ΔTm)c-(ΔTm)d, difference” value on LPLA2 (N=3 ± SD) came to 0.13 ± 0.1 °C. Besides, the “Ratio (15 μM)” value in the data set with MDCK cells is reported as 0.38.

On to `O=c1[nH]c2ccccc2n1C1CCN(CCCC(c2ccc(F)cc2)c2ccc(F)cc2)CC1` [Pimozide, 1-{1-[4,4-bis(4-fluorophenyl)butyl]piperidin-4-yl}-2,3-dihydro-1H-1,3-benzodiazol-2-one], for which the 50% inhibitory concentration (IC50) in data set [1] (setting [3]) came to 10.6 µM. In addition, at LPLA2, the “(ΔTm)c-(ΔTm)d, difference” value was determined as 0.26 ± 0.0 °C. In addition, the “pKa (basic)” value in data set [2] (setting [4]) is listed as 8.38. The “In Vitro PLD” value with phospholipidosis was “Yes”.

On to `Cc1nc2ccccn2c(=O)c1CCN1CCC(C(=O)c2ccc(F)cc2)CC1` [Pirenperone, 3-[2-[4-(4-Fluorobenzoyl)-1-piperidinyl]ethyl]-2-methyl-4H-pyrido-[1,2-a] pyrimidin-4-one], for which the IC50 in data set [1] (setting [3]) amounted to 233 µM. Moreover, the “(ΔTm)c-(ΔTm)d, difference” value at LPLA2 (N=3 ± SD) was 0.79 ± 0.0 °C and 0.79 ± 0.1 °C. Moreover, the “pKa (basic)” value in data set [2] (setting [4]) is reported as 8.02. Also, in the data set on phospholipidosis, the “In Vitro PLD” value was “Yes”.

Consider `OC(CCN1CCCCC1)(c1ccccc1)c1ccccc1` [Pridinol, 1,1-diphenyl-3-(piperidin-1-yl)propan-1-ol], for which the IC50 in data set [1] (setting [3]) turned out to be 285 µM. Also, the “(ΔTm)c-(ΔTm)d, difference” value on LPLA2 (N=3 ± SD) is 0 °C. Moreover, the “pKa (basic)” value in data set [2] (setting [4]) is given as 9.34. The “In Vitro PLD” value in the data set with phospholipidosis is on record as “Yes”.

For `CC(=O)[C@H]1CC[C@H]2[C@@H]3CCC4=CC(=O)CC[C@]4(C)[C@H]3CC[C@]12C` [Progesterone, (1S,3aS,3bS,9aR,9bS,11aS)-1-acetyl-9a,11a-dimethyl-1H,2H,3H, 3aH,3bH,4H,5H, 7H,8H,9H,9 aH,9bH, 10H,11H,11aH-cyclopenta [a] phenanthren-7-one], in data set [1] (setting [3]), the 50% inhibitory concentration (IC50) turned out to be 10.5 µM. The “(ΔTm)c-(ΔTm)d, difference” value at LPLA2 (N=3 ± SD) was determined as 0.61 ± 0.1 °C. In data set [2] (setting [4]), the “pKa (basic)” value is reported as -4.8. For the same compound, the “In Vitro PLD” value with phospholipidosis was “Yes”.

`CCCOc1ccc(C(=O)OCCN(CC)CC)cc1N` [Proparacaine, 2-(diethylamino)ethyl 3-amino-4-propoxybenzoate]: the IC50 in data set [1] (setting [3]) stood at 2470 µM. In data set [1] (acyl transferase activity), the “LPLA2 inhibition (in words)” value is recorded as “millimolar concentrations”. For the same compound, the “(ΔTm)c-(ΔTm)d, difference” value at LPLA2 (N=3 ± SD) was 0 °C. Besides, in data set [2] (setting [4]), the “pKa (basic)” value is recorded as 8.56. The “In Vitro PLD” value in the data set with phospholipidosis is “Yes”.

Consider `COc1ccc(CN(CCN(C)C)c2ccccn2)cc1` [Pyrilamine, N-[2-(dimethylamino)ethyl]-N-[(4-methoxyphenyl)methyl]pyridin-2-amine], for which, in data set [1] (setting [3]), the IC50 worked out at 214 µM. Moreover, the “(ΔTm)c-(ΔTm)d, difference” value on LPLA2 (N=3 ± SD) worked out at 0 °C. Moreover, in data set [2] (setting [4]), the “pKa (basic)” value is on record as 8.76. Also, the “In Vitro PLD” value in the data set with phospholipidosis is reported as “Yes”.

For `CCOc1cc(CC(=O)NC(CC(C)C)c2ccccc2N2CCCCC2)ccc1C(=O)O` (centres unmarked) [Repaglinide, 2-ethoxy-4-[2-({3-methyl-1-[2-(1-piperidinyl)phenyl]butyl}amino)-2-oxoethyl]benzoic acid], the concentration for half-maximal inhibition (IC50) in data set [1] (setting [3]) came out at 86.5 µM. The “(ΔTm)c-(ΔTm)d, difference” value on LPLA2 (N=3 ± SD) is -0.84 ± 1.5 °C. Besides, the “pKa (basic)” value in data set [2] (setting [4]) is 4.28. For the same compound, the “In Vitro PLD” value in the data set with phospholipidosis was “Yes”.

Regarding `CC1=C(/C=C/C(C)=C/C=C/C(C)=C/CO)C(C)(C)CCC1` [Retinol, (2E,4E,6E,8E)-3,7-dimethyl-9-(2,6,6-trimethylcyclohex-1-en-1-yl)nona-2,4,6,8-tetraen-1-ol], the 50% inhibitory concentration (IC50) in data set [1] (setting [3]) stood at 52.5 µM. For the same compound, at LPLA2 (N=3 ± SD), the “(ΔTm)c-(ΔTm)d, difference” value came out at 0.81 ± 0.3 °C. The “pKa (basic)” value in data set [2] (setting [4]) is given as -2.2. Besides, the “In Vitro PLD” value in the data set with phospholipidosis is given as “Yes”.

As for `CCCCNc1ccc(C(=O)OCCN(C)C)cc1` [Tetracaine, 2-(dimethylamino)ethyl 4-(butylamino)benzoate], the half-inhibitory concentration (IC50) in data set [1] (setting [3]) is 333 µM. Further, on LPLA2 (N=3 ± SD), the “(ΔTm)c-(ΔTm)d, difference” value is -1.20 ± 0.5 °C. In addition, in data set [2] (setting [4]), the “pKa (basic)” value is reported as 8.42. The “In Vitro PLD” value in the data set with phospholipidosis was “Yes”.

In the case of `CC(CN(C)C)CN1c2ccccc2CCc2ccccc21` (centres unmarked) [Trimipramine, (3-{2-azatricyclo[9.4.0.0³,^8]pentadeca-1(15),3,5,7,11, 13-hexaen-2-yl}-2-methylpropyl)dimethylamine], the IC50 in data set [1] (setting [3]) amounted to 268 µM. The “(ΔTm)c-(ΔTm)d, difference” value on LPLA2 (N=3 ± SD) stood at 0.56 ± 0.0 °C. In addition, the “pKa (basic)” value in data set [2] (setting [4]) was 9.42. Further, the “In Vitro PLD” value in the data set on phospholipidosis is reported as “Yes”.

`COC(=O)[C@@H]1[C@H]2C[C@H]3c4[nH]c5ccccc5c4CCN3C[C@@H]2CC[C@@H]1O` [Yohimbine, methyl (1S,15R,18S,19R,20S)-18-hydroxy-3,13-diazapentacyclo [11.8.0.0^2,^10.0^4,^9.0^15,^20]henicosa-2(10),4,6,8-tetraene-19-carboxylate]: the half-inhibitory concentration (IC50) in data set [1] (LPLA2 IC50, 1-O-acyl N-acetylsphingosine synthase activity, pH 4.5, DOPC/sulfatide liposomes) worked out at 200 µM. Further, the “(ΔTm)c-(ΔTm)d, difference” value on LPLA2 is 1.52 ± 0.6 °C. Also, in data set [2] (setting [4]), the “pKa (basic)” value is 7.65. Moreover, the “In Vitro PLD” value in the data set with phospholipidosis is “Yes”.

As for `COc1cc(C(=O)NS(=O)(=O)c2ccccc2C)ccc1Cc1cn(C)c2ccc(NC(=O)OC3CCCC3)cc12` [Zafirlukast, cyclopentyl N-[3-({2-methoxy-4-[(2-methylbenzenesulfonyl)carbamoyl]phenyl}methyl)-1-methyl-1H-indol-5-yl]carbamate], the IC50 in data set [1] (setting [3]) was found to be 3.1 µM. On LPLA2 (N=3 ± SD), the “(ΔTm)c-(ΔTm)d, difference” value was 1.80 ± 0.4 °C. In addition, the “pKa (basic)” value in data set [2] (setting [4]) is listed as -1.1. In addition, in the data set with phospholipidosis, the “In Vitro PLD” value is on record as “Yes”.

Broadly, the IC50 is the concentration that inhibits the measured activity by half.

Source of the values: article PMC8243516, “Inhibition of lysosomal phospholipase A2 predicts drug-induced phospholipidosis” (Journal of Lipid Research, 2021).
